# In ChEMBL document CHEMBL1150872, “Four new bioactive lobane diterpenes of the soft coral Lobophytum pauciflorum from Mindoro, Philippines” (J Nat Prod, 1998):
# The source made the active and inactive calls. The rule behind the calls is not given here.
# What was measured:
# Cladosporium cucumerinum [1] = experiment: Antifungal activity against Cladosporium cucumerinum at 0.2 umol after 2 days; type: functional
# Cladosporium cucumerinum [2] = experiment: Antifungal activity against Cladosporium cucumerinum at 0.4 umol after 2 days; type: functional
# Cladosporium cucumerinum [3] = experiment: Antifungal activity against Cladosporium cucumerinum at 0.8 umol after 2 days; type: functional
# Cladosporium cucumerinum [4] = experiment: Antifungal activity against Cladosporium cucumerinum at 0.1 umol after 2 days; type: functional
# [5] = Toxicity in Artemia salina after 48 hrs; type: organism-based; conditions: in vivo
# Bacillus subtilis = experiment: Antibacterial activity against Bacillus subtilis 168 after 24 hrs by agar diffusion assay; type: functional, subsp. subtilis str. 168
# Escherichia coli = experiment: Antibacterial activity against Escherichia coli ATCC 25922 after 24 hrs by agar diffusion assay; type: functional, organism-based
# Saccharomyces cerevisiae = experiment: Antifungal activity against Saccharomyces cerevisiae after 2 days; type: functional
# Staphylococcus aureus = experiment: Antibacterial activity against Staphylococcus aureus […] after 24 hrs by agar diffusion assay; type: functional, organism-based
Structure (SMILES),inhibition zone (IZ) (Cladosporium cucumerinum [1]) [mm],inhibition zone (IZ) (Cladosporium cucumerinum [2]) [mm],inhibition zone (IZ) (Cladosporium cucumerinum [3]) [mm],inhibition zone (IZ) (Cladosporium cucumerinum [4]) [mm],LC50 at 48 h [5] [µg/mL],inhibition zone (IZ) (Bacillus subtilis) [mm],Activity (Escherichia coli),inhibition zone (IZ) (Saccharomyces cerevisiae) [mm],Activity (Staphylococcus aureus)
COC1=C(C)C(=O)c2cc(=O)n(C)c(C)c2C1=O [MIMOSAMYCIN],15,18,–,–,–,–,–,–,–
C=C[C@@]1(C)CC[C@H](C2=CCC(O)C(C)(C)OC2)C[C@@H]1C(=C)C (stereo partly drawn),10,14,17,5,–,–,–,–,–
C=C[C@@]1(C)CC[C@H](/C(C)=C/C[C@@H](OC(C)=O)C(C)(C)O)C[C@@H]1C(=C)C,5,9,13,2,19.1,–,–,–,–
C=C[C@@]1(C)CC[C@H](C2=CC[C@H](C(C)(C)O)OC2=O)C[C@@H]1C(=C)C [LOBATRIENOLIDE],9,13,15,6,–,–,–,–,–
C=C[C@@]1(C)CC[C@H](/C(C)=C/C=C/C(C)(C)O)C[C@@H]1C(=C)C [FUSCOL],0,0,2,0,4.18,–,–,–,–
C=C[C@@]1(C)CC[C@H](C2=CC[C@H](C(C)(C)O)OC2)C[C@@H]1C(=C)C [LOBATRIENE],10,14,15,5,19.8,8,inactive,7,inactive
C=C[C@@]1(C)CC[C@H](/C(=C/C[C@@H](O)C(C)(C)O)COC(C)=O)C[C@@H]1C(=C)C,10,20,30,5,59,–,–,–,–
C=C[C@@]1(C)CC[C@H](/C(C)=C/C[C@@H](O)C(C)(C)O)C[C@@H]1C(=C)C,9,14,17,6,10.5,–,–,–,–
C=C[C@@]1(C)CC[C@H](/C(=C/C[C@@H](OC(C)=O)C(C)(C)O)COC(C)=O)C[C@@H]1C(=C)C,10,13,15,5,60.4,–,–,–,–
C=C[C@@]1(C)CC[C@H](C2=CC[C@H](C(C)(C)OC(C)=O)OC2)C[C@@H]1C(=C)C,8,10,–,6,34,–,–,–,–
C=C[C@@]1(C)CC[C@H](/C(C)=C/C[C@H]2OC2(C)C)C[C@@H]1C(=C)C,0,0,5,0,0.64,–,–,–,–
